Test results: ChEMBL document CHEMBL3507680, “University of Dundee, Gates Library screen for HepG2 cell viability”

assay: Human HepG2 cell viability assay in 384 well format; format: toxicity, cell-based; parameters: dose 125 nL, time 70.5 hour; cytotoxicity at 70.5 h: concentration not given beside the values; details: HepG2 cells, read-out: Inhibition

Question: With O=C(O)C1CCCN1c1nc(-c2ccc(Cl)c(Cl)c2)cc(C(F)(F)F)n1 (stereo not drawn) as the molecule, how does the cytotoxicity at 70.5 h read?
Answer: -3.95%

Question: Which cytotoxicity at 70.5 h does the source give for Cc1nnc([C@H]2C[C@H]3OCC[C@H]3N(S(=O)(=O)CC(C)C)C2)o1 here?
Answer: -1.29%

Question: For O=C(C1CC(F)(F)C1)N1CC[C@H]2OCC[C@@]2(COCC2CC2)C1, which cytotoxicity at 70.5 h is on record?
Answer: -1.76%

Question: With Cc1ccccc1C(=O)N1C[C@@H]2C[C@@H](C)O[C@@H]2C1 as the molecule, how does the cytotoxicity at 70.5 h read?
Answer: -8.1%

Question: Which cytotoxicity at 70.5 h does the source give for O=C(c1cnc(-c2noc3cc(N4CCCC4)ccc23)s1)N1CCCC1 here?
Answer: -4.44%

Question: With CCNC(=O)N1CCC2(CC1)CCn1c(-c3cccc(OC)c3)cnc12 as the molecule, how does the cytotoxicity at 70.5 h read?
Answer: -6.74%

Question: For Cn1cnc2c1C(C(=O)N1CCCO1)N(C(=O)c1ccccc1)CC2 (stereo not drawn), which cytotoxicity at 70.5 h is on record?
Answer: -9.14%

Question: With O=C(NC1CC1)[C@H]1COC[C@H]2CN(c3ncc(F)cn3)C[C@H]21 as the molecule, how does the cytotoxicity at 70.5 h read?
Answer: -8.95%

Question: Which cytotoxicity at 70.5 h does the source give for CNC(=O)C1CCC2(CCN(c3ncc(C)cn3)CC2)CO1 (stereo not drawn) here?
Answer: 4.35%

Question: For CC(C)CN1C[C@H]2C[C@H](C(=O)NCc3cccnc3)[C@@H](C1)O2, which cytotoxicity at 70.5 h is on record?
Answer: 2.54%

Question: Which cytotoxicity at 70.5 h does the source give for CC(C)OC[C@H]1CCC[C@]12CN(S(=O)(=O)c1cccs1)CCO2 here?
Answer: -8.77%

Question: Which cytotoxicity at 70.5 h does the source give for COC[C@@H]1CCC[C@]12CN(S(=O)(=O)c1cccs1)CCO2 here?
Answer: -4.17%

Question: With COCCN1C[C@@H]2OCCN(c3ccnc(N(C)C)n3)[C@@H]2C1 as the molecule, how does the cytotoxicity at 70.5 h read?
Answer: 0.722%

Question: With COCC(=O)N1CCCn2c(CN3CCCC3=O)nnc2C1 as the molecule, how does the cytotoxicity at 70.5 h read?
Answer: -8.38%

Question: For Cc1cnc(N2CCC3(CCCN(c4ncc(F)cn4)C3)C2)nc1 (stereo not drawn), which cytotoxicity at 70.5 h is on record?
Answer: -5.99%

Question: With Cc1nc(CN2C(=O)COC3(CCN(C(N)=O)CC3)C2C)cs1 (stereo not drawn) as the molecule, how does the cytotoxicity at 70.5 h read?
Answer: 3.95%

Question: Which cytotoxicity at 70.5 h does the source give for COCC1CN(Cc2cccc(C#N)c2)Cc2nccn2C1 (stereo not drawn) here?
Answer: 1.24%

Question: Which cytotoxicity at 70.5 h does the source give for COc1cccc(CC(=O)N2Cc3nccn3CC(CN(C)C)C2)c1 (stereo not drawn) here?
Answer: -0.154%

Question: Which cytotoxicity at 70.5 h does the source give for CCOCC(=O)N1CCCn2c(CN3CCOCC3)nnc2C1 here?
Answer: 2.86%

Question: With COCCN1C2(CCN(C(=O)c3cccs3)C2)c2ccccc2S1(=O)=O (stereo not drawn) as the molecule, how does the cytotoxicity at 70.5 h read?
Answer: 2.42%

Question: With CCOCC(=O)N1CCCn2c(CN3CCCCC3)nnc2C1 as the molecule, how does the cytotoxicity at 70.5 h read?
Answer: -1.12%

Question: For c1ccc(N2CCOCC3(CCCN(c4nccs4)C3)C2)nc1 (stereo not drawn), which cytotoxicity at 70.5 h is on record?
Answer: 4.3%

Question: Which cytotoxicity at 70.5 h does the source give for NC(=O)N1CC[C@@H]2O[C@@H](COCC(=O)N3CCCC3)CC[C@@H]21 here?
Answer: 24%

Question: With Cc1ccc(CS(=O)(=O)N2CC[C@H]3[C@H]2CC(=O)N3C)cc1 as the molecule, how does the cytotoxicity at 70.5 h read?
Answer: -10.2%

Question: Which cytotoxicity at 70.5 h does the source give for Cc1nnc([C@H]2C[C@@H]3CCN(Cc4cc(C)on4)C[C@H]3O2)[nH]1 here?
Answer: -4.17%

Question: For CS(=O)(=O)N1CC[C@@H]2OC(COCC(=O)N3CCCC3)CC[C@@H]21 (stereo partly drawn), which cytotoxicity at 70.5 h is on record?
Answer: -6.9%

Question: Which cytotoxicity at 70.5 h does the source give for O=C1CC[C@H]2[C@H](CCN2C(=O)c2ccc[nH]2)N1CCN1CCOCC1 here?
Answer: 19.1%

Question: For Cc1csc(CN2CC[C@H]3C[C@H](C)O[C@@H]3C2)n1, which cytotoxicity at 70.5 h is on record?
Answer: -10.4%

Question: With Cc1csc(CN2CC[C@H]3C[C@H](c4noc(C)n4)O[C@@H]3C2)n1 as the molecule, how does the cytotoxicity at 70.5 h read?
Answer: -9.71%

Question: Which cytotoxicity at 70.5 h does the source give for Cc1ncsc1CN1C[C@H]2OCC[C@H]2[C@H](C(=O)NCC2CC2)C1 here?
Answer: 2.15%

Question: Which cytotoxicity at 70.5 h does the source give for Cc1csc(CN2CC[C@H]3C[C@@H](c4noc(C)n4)O[C@@H]3C2)n1 here?
Answer: -0.439%

Question: For COC[C@@]12CCO[C@@H]1CCN(C(=O)Cc1ccc(C)cc1)C2, which cytotoxicity at 70.5 h is on record?
Answer: 31.2%

Question: For N#Cc1ccc(OC[C@]23COC[C@H]2CN(Cc2nccs2)C3)nc1, which cytotoxicity at 70.5 h is on record?
Answer: -4.7%

Question: With Cc1nocc1C(=O)N1CCCC2(CCN(c3cnn(C)c3)C2=O)C1 (stereo not drawn) as the molecule, how does the cytotoxicity at 70.5 h read?
Answer: -3.71%

Question: Which cytotoxicity at 70.5 h does the source give for Cc1ccc(CN2C[C@@H]3COC[C@]3(COc3ccc(C#N)cn3)C2)o1 here?
Answer: 7.17%

Question: Which cytotoxicity at 70.5 h does the source give for Cc1cc(C(=O)NCC(C)C)nn1C here?
Answer: -5.81%

Question: Which cytotoxicity at 70.5 h does the source give for CCn1cc(C(=O)NCc2ccc3c(c2)OCO3)c(C)n1 here?
Answer: -1.15%

Question: For CCn1cc(CNc2ccc(F)c(F)c2)cn1, which cytotoxicity at 70.5 h is on record?
Answer: 8.3%

Question: For O=C(O)Cn1nc(C2CC2)c2c(-c3ccc(F)cc3)ccnc21, which cytotoxicity at 70.5 h is on record?
Answer: -10.6%

Question: With COC(=O)c1ccc(OC)c(Cn2cc(Br)cn2)c1 as the molecule, how does the cytotoxicity at 70.5 h read?
Answer: -16.7%

Question: Which cytotoxicity at 70.5 h does the source give for Cc1nn(C)cc1-c1cc(C(F)(F)F)nn1CCC#N here?
Answer: -1.92%

Question: Which cytotoxicity at 70.5 h does the source give for Cc1ccc(Cn2nc(C)c3c(C(=O)O)c(Cl)c(C)nc32)cc1 here?
Answer: -12.9%

Question: Which cytotoxicity at 70.5 h does the source give for COC(=O)c1c(Cl)c(C2CC2)nc2onc(C)c12 here?
Answer: 2.98%

Question: Which cytotoxicity at 70.5 h does the source give for COC(=O)c1cc(C2CC2)nc2c(Cl)cnn12 here?
Answer: 24.9%

Question: Which cytotoxicity at 70.5 h does the source give for Cc1c(-c2cc(C(F)(F)F)nc(N3CCC(N)CC3)n2)cnn1C here?
Answer: 32.2%

Question: Which cytotoxicity at 70.5 h does the source give for CNC(=O)Cc1n[nH]c(-c2cncc(Br)c2)n1 here?
Answer: 27.1%

Question: For CCOC(=O)Cc1n[nH]c(-c2cncc(Br)c2)n1, which cytotoxicity at 70.5 h is on record?
Answer: 7.76%

Question: For O=C(O)CCCC(=O)Nc1cnn(COc2ccc(F)cc2Cl)c1, which cytotoxicity at 70.5 h is on record?
Answer: 7.18%

Question: For Cc1ccnc(NC(=O)CCc2cnn(C)c2C)c1, which cytotoxicity at 70.5 h is on record?
Answer: -4.47%

Question: For O=C(O)CCC(=O)Nc1nn(Cc2ccccc2Cl)cc1Cl, which cytotoxicity at 70.5 h is on record?
Answer: -5.22%

Question: For CCN(CC)C(=O)c1ccn(COc2ccc(F)cc2)n1, which cytotoxicity at 70.5 h is on record?
Answer: -10.8%

Question: With COCCNc1cc(C)nn2cnnc12 as the molecule, how does the cytotoxicity at 70.5 h read?
Answer: 11.1%

Question: Which cytotoxicity at 70.5 h does the source give for CC(=O)Nc1ncc(S(=O)(=O)Nc2ccccc2)s1 here?
Answer: -11.1%
